# Source: ChEMBL document CHEMBL1909046, “DrugMatrix in vitro pharmacology data”
# Assays:
# [1] = DRUGMATRIX: Calcium Channel Type L, Dihydropyridine radioligand binding (ligand: [3H] Nitrendipine); assay type: cell membranes, Rattus norvegicus, Wistar, Cerebral cortex, Membrane; details: Not Active = under 50% inhibition at 10 µM
# [2] = molecular target: T1, C-C chemokine receptor type 4 (Homo sapiens, UniProt P51679); assay type: cell membranes, Chem-1, Membrane; details: chem-1; also: in other assays of this panel Not Active means under 50% inhibition at 10 µM
# T1 sequence (P51679 whole entry): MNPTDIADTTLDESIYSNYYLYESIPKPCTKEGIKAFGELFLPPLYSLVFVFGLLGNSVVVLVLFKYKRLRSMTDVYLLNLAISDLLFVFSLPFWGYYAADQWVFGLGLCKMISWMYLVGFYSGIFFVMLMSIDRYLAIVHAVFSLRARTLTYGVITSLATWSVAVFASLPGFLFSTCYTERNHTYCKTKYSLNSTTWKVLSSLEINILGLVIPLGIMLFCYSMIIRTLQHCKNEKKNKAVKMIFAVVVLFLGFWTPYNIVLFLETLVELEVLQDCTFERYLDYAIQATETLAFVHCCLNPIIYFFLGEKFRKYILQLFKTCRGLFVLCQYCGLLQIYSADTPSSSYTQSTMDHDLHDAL
# Insulin receptor = Insulin receptor (Rattus norvegicus, UniProt P15127); assay type: cell membranes, Wistar, Liver, Membrane; also: in other assays of this panel Not Active means under 50% inhibition at 10 µM
# Mu-type opioid receptor = Mu-type opioid receptor (Homo sapiens, UniProt P35372); assay: DRUGMATRIX: Opiate mu (OP3, MOP) radioligand binding (ligand: [3H] Diprenorphine); assay type: cell membranes, CHO-K1, Membrane; details: Not Active = under 50% inhibition at 10 µM
# Cathepsin G = molecular target: T2, Cathepsin G (Homo sapiens, UniProt P08311); assay: biochemical; assay type: tissue-based, Neutrophil; details: neutrophil;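 also: inhibition of Cathepsin G enzyme activity, tested on an AMC-conjugated peptide substrate; in other assays of this panel Not Active means under 50% inhibition at 10 µM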
# T2 sequence (P08311 whole entry): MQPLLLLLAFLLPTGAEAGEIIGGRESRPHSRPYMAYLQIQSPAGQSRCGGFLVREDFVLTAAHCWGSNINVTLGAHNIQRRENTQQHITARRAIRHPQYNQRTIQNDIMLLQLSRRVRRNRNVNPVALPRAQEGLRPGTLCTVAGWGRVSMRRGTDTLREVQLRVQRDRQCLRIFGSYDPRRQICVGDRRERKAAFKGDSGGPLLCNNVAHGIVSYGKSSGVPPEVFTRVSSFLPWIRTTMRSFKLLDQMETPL
# Adenosine receptor A1 = molecular target: T3, Adenosine receptor A1 (Homo sapiens, UniProt P30542); assay type: cell membranes, CHO, Membrane; details: cho;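 also: radioligand binding assay at the adenosine A1 receptor, with DPCPX serving as the labelled ligand; in other assays of this panel Not Active means under 50% inhibition at 10 µM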
# T3 sequence (P30542 whole entry): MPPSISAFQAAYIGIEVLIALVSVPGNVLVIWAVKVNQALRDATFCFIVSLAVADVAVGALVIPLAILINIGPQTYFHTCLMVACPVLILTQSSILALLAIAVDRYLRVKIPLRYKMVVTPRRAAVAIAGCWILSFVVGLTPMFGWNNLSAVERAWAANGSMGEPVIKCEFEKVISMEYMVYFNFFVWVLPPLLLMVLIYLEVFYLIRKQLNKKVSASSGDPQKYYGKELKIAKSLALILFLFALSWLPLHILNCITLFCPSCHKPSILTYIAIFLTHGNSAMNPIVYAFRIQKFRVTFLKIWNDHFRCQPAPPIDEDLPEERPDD
# Cytochrome P450 3A4 = Cytochrome P450 3A4 (Homo sapiens, UniProt P08684); details: bti-tn-5b1-4; also: in other assays of this panel Not Active means under 50% inhibition at 10 µM
# Estrogen receptor = molecular target: T4, Estrogen receptor (Homo sapiens, UniProt P03372); details: sf9; also: in other assays of this panel Not Active means under 50% inhibition at 10 µM
# T4 sequence (P03372 whole entry): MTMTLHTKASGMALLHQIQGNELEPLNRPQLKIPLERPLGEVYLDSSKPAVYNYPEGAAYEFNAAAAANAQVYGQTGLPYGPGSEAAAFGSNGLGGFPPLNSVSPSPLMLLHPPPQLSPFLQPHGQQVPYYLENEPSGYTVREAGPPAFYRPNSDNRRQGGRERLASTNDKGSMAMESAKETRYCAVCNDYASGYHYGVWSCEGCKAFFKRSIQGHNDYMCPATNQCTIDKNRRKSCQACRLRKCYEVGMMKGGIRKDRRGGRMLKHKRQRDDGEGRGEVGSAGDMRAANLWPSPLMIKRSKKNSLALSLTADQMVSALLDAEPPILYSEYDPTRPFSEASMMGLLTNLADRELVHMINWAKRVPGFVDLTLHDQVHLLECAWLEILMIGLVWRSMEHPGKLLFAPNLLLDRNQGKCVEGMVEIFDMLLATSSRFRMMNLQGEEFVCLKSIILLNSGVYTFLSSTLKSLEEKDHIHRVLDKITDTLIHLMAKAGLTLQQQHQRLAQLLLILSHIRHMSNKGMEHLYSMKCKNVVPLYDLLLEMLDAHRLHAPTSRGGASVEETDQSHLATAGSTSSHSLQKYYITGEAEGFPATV
# Cytochrome P450 3A4, sequence (P08684 whole entry): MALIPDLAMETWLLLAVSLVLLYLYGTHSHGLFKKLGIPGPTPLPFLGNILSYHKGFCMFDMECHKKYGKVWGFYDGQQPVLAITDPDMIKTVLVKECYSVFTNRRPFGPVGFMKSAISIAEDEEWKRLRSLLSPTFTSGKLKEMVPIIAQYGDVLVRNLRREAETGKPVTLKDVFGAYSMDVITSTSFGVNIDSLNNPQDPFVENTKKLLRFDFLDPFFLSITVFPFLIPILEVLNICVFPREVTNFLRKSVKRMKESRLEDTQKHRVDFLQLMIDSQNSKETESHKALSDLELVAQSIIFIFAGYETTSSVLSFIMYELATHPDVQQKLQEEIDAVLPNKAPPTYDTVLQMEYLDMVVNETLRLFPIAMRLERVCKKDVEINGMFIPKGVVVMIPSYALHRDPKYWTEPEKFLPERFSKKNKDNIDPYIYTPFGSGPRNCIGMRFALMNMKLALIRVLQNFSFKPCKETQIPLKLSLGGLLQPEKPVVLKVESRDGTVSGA
# Mu-type opioid receptor, sequence (P35372 whole entry): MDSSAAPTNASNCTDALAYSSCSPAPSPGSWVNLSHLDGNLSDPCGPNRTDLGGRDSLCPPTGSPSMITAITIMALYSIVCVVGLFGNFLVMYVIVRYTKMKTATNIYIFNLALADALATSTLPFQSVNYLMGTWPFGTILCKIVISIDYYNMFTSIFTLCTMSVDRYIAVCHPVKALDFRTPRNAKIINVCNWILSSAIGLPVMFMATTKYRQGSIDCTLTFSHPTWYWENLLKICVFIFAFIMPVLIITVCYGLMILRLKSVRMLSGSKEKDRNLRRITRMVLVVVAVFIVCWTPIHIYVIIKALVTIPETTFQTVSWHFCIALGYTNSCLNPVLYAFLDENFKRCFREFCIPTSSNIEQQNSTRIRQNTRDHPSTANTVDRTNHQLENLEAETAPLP
# Insulin receptor, sequence (P15127 27-759 limits assumed): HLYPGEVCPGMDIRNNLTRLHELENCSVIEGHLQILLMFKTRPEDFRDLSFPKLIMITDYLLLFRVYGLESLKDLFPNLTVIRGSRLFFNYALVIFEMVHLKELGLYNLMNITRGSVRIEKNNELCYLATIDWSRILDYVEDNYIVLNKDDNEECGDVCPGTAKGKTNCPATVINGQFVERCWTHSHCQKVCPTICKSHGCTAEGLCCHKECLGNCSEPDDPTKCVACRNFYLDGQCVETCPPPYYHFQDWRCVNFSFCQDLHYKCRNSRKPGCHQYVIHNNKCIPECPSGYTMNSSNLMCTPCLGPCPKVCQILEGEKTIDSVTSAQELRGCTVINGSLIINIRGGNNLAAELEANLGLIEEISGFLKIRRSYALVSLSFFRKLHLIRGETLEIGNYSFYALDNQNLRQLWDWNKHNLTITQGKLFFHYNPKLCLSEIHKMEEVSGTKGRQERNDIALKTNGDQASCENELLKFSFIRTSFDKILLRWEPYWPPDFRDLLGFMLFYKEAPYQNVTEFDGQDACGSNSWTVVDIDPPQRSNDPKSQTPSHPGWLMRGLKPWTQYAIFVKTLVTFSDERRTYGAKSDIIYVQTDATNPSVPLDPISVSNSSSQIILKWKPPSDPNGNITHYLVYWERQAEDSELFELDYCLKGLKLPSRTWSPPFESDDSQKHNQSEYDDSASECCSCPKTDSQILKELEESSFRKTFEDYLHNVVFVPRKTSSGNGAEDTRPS
# Insulin receptor, sequence (P15127 764-1383 limits assumed): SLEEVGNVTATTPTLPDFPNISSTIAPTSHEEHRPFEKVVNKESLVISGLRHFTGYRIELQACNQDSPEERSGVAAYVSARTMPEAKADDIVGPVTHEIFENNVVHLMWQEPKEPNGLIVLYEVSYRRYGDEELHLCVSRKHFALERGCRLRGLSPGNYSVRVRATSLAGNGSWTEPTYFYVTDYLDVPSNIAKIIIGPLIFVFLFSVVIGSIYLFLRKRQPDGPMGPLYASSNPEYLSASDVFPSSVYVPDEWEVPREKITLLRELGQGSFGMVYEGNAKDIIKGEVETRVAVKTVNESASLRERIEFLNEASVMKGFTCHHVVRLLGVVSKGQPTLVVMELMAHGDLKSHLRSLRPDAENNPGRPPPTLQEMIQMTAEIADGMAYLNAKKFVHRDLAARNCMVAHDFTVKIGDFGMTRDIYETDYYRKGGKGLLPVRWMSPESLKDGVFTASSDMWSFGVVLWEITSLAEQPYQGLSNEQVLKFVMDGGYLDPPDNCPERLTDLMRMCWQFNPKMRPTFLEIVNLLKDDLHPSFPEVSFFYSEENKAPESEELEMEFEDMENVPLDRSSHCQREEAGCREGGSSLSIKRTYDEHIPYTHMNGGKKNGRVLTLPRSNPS
Structure (SMILES),IC50 [1],Ki [1],IC50 [2],IC50 (Insulin receptor),IC50 (Mu-type opioid receptor; cho-k1),IC50 (Cathepsin G),IC50 (Adenosine receptor A1),IC50 (Cytochrome P450 3A4),Ki (Cytochrome P450 3A4),IC50 (Estrogen receptor),Ki (Mu-type opioid receptor) [µM],IC50 (Mu-type opioid receptor; read-out: IC50) [µM]
CC(N)Cc1c[nH]c2ccc(OCc3cccs3)cc12 (stereo unspecified) [BW-723C86],Not Active,Not Active,Not Active,Not Active,Not Active,Not Active,Not Active,Not Active,Not Active,Not Active,–,–
c1ccc2sc(SSc3nc4ccccc4s3)nc2c1 [BENZOTHIAZYL DISULFIDE],Not Active,Not Active,Not Active,Not Active,–,Not Active,Not Active,Not Active,Not Active,Not Active,1.26,3.11
CC(C)Cc1ccc([C@H](C)C(=O)O)cc1 [DEXIBUPROFEN],Not Active,Not Active,Not Active,Not Active,Not Active,Not Active,Not Active,Not Active,Not Active,Not Active,–,–
Cl.NC[C@H]1CC[C@H](C(=O)Oc2ccc(CCC(=O)O)cc2)CC1 [CETRAXATE HYDROCHLORIDE],Not Active,Not Active,Not Active,Not Active,Not Active,Not Active,Not Active,Not Active,Not Active,Not Active,–,–
Nc1nc(N)c2nc(CNc3ccc(C(=O)N[C@@H](CCC(=O)O)C(=O)O)cc3)cnc2n1 [AMINOPTERIN],Not Active,Not Active,Not Active,Not Active,Not Active,Not Active,Not Active,Not Active,Not Active,Not Active,–,–
NC(=O)NC(=O)Cc1ccccc1 [PHENACEMIDE],Not Active,Not Active,Not Active,Not Active,Not Active,Not Active,Not Active,Not Active,Not Active,Not Active,–,–
O=C1c2ccccc2C(=O)C1c1ccccc1 [PHENINDIONE],Not Active,Not Active,Not Active,Not Active,Not Active,Not Active,Not Active,Not Active,Not Active,Not Active,–,–
CCN1CCN(C(=O)N[C@@H](C(=O)N[C@@H]2C(=O)N3[C@@H]2SC(C)(C)[C@@H]3C(=O)O)c2ccccc2)C(=O)C1=O [PIPERACILLIN],Not Active,Not Active,Not Active,Not Active,Not Active,Not Active,Not Active,Not Active,Not Active,Not Active,–,–
CNC[C@H](O)c1ccc(O)c(O)c1 [EPINEPHRINE],Not Active,Not Active,Not Active,Not Active,Not Active,Not Active,Not Active,Not Active,Not Active,Not Active,–,–
CCC1(c2ccccc2)C(=O)NC(=O)NC1=O [PHENOBARBITAL],Not Active,Not Active,Not Active,Not Active,Not Active,Not Active,Not Active,Not Active,Not Active,Not Active,–,–
CC1(COc2ccc(CC3SC(=O)NC3=O)cc2)CCCCC1 (stereo unspecified) [CIGLITAZONE],Not Active,Not Active,Not Active,Not Active,Not Active,Not Active,Not Active,Not Active,Not Active,Not Active,–,–
OC[C@H]1O[C@@H]2O[C@H]3[C@H](O)[C@@H](O)[C@@H](O[C@H]4[C@H](O)[C@@H](O)[C@@H](O[C@H]5[C@H](O)[C@@H](O)[C@@H](O[C@H]6[C@H](O)[C@@H](O)[C@@H](O[C@H]7[C@H](O)[C@@H](O)[C@@H](O[C@H]1[C@H](O)[C@H]2O)O[C@@H]7CO)O[C@@H]6CO)O[C@@H]5CO)O[C@@H]4CO)O[C@@H]3CO [ALFADEX],Not Active,Not Active,Not Active,Not Active,Not Active,Not Active,Not Active,Not Active,Not Active,Not Active,–,–
Nc1nc(F)nc2c1ncn2[C@@H]1O[C@H](CO)[C@@H](O)[C@@H]1O [FLUDARABINE],Not Active,Not Active,Not Active,Not Active,Not Active,Not Active,Not Active,Not Active,Not Active,Not Active,–,–
O=C(O)CO [GLYCOLIC ACID],Not Active,Not Active,Not Active,Not Active,Not Active,Not Active,Not Active,Not Active,Not Active,Not Active,–,–
COc1ccccc1OCCNCC(O)COc1cccc2[nH]c3ccccc3c12 (stereo unspecified) [CARVEDILOL],Not Active,Not Active,Not Active,Not Active,Not Active,Not Active,Not Active,Not Active,Not Active,Not Active,–,–
NC(N)=Nc1nc(CSCCC(N)=NS(N)(=O)=O)cs1 [FAMOTIDINE],Not Active,Not Active,Not Active,Not Active,Not Active,Not Active,Not Active,Not Active,Not Active,Not Active,–,–
COc1ccc(C[C@H](N)C(=O)N[C@H]2[C@@H](O)[C@H](n3cnc4c(N(C)C)ncnc43)O[C@@H]2CO)cc1 [PUROMYCIN],Not Active,Not Active,Not Active,Not Active,Not Active,Not Active,Not Active,Not Active,Not Active,Not Active,–,–
